# Experimental data taken from US8455510B2.
# Experiments:
# [1] = test system: acute graft-versus-host disease (aGVHD); assay: Acute graft-versus-host disease (aGVHD) mouse model; type: in vivo, C57B/6 mice; conditions: 1.5 mg/kg/d, intraperitoneal injection, FIG. 15
# Description: Donator: BABL/C mice; acceptor: C57B/6 mice.
# C57B/6(H-2^b) mice, female, 7 weeks old, were used as the acceptor mice to receive 8.5 Gy of total body irradiation in a Gammacell.
# After the acceptor mice received irradiation for 4 to 6 hours, the heterogenetic bone marrow transplantation was carried out.
# BABL/C(H-2^d) mice, female, 4 weeks old were used as the donator mice. The bone marrow cells in long bone of the mice limbs and the spleen lymphocytes were collected and suspended in a PBS buffer solution respectively by adjusting the cell concentration to 1×10^8.
# The two kinds of cells were mixed equivalently to prepare a mixed cell suspension. Each acceptor mouse was intravenously injected with 0.5 ml of the suspension.
# Mice were randomly divided into 3 groups with 10 mice in each group. Mice were administered once daily from the first day when the bone marrow transplantation was carried out.
# Y-31 group (1.5 mg/kg/d, intraperitoneal injection)
# (1) Body weight: weighted once daily;
# (2) The survival time of the mice after BMT was recorded.
# [2] = biological target: T1, FKBP-12 protein (Homo sapiens, UniProt P62942); assay: SPR (surface plasma resonance) binding with FKBP-12
# T1 construct: purchased sigma Co
# Description: (1) FKBP-12 protein was purchased from sigma Co.
# (2) HBS-EP buffer solution (10 mM Hepes, 150 mM NaCl, 3.4 mM EDTA, 0.005% (v/v) surfactant P20, pH 7.4)
# (3) Activating reagents EDC and NHS, and blocking reagents Ethanolamine, etc., were purchased from BIACORE AB Co. (Uppsala, Sweden).
# (4) BIAcore 3000 and CM5 chip were purchased from BIACORE AB Co. (Uppsala, Sweden).
# (2) […] was coupled to the FC2 channel on CM5 chip by using the Wizard for amino-coupling in Biacore 3000 controlling soft. 3.3 g/L of FKBP-12 protein was diluted with 10 mM NaAC (pH 4.6) to 66 μg/ml. The surface of the chip was washed by injecting a mixture of 0.1M1-(3-dimethylaminopropyl)-3-ethylcarbodiimide hydrochloride (EDCI) and 0.1M N-hydroxysuccinimide (NHS) (1:1) at a flow rate of 20 μL/min for 7 min. After that, the protein solution was injected, and then a 1M cholamine (pH 8.5) solution was fed for 7 min to block the activated surface of the chip. Preliminary screening and pharmacokinetic tests on the compounds
# The binding abilities of small molecular compounds with FKBP-12 protein were evaluated by SPR (surface plasma resonance). The stock solution of the compound was 10 mM, and was diluted by HBS-EP buffer solution at given ratios. Pharmacokinetic tests were carried out by the Wizard for kinetic analysis in Biacore 3000 controlling soft. The resulted data were fitted by 1:1 Langmuir binding model or stability model in Biacore 3000 analytical soft to obtain the exact kinetic and thermodynamic constants.
# [3] = test system: bovine type II collagen-induced arthritis; assay: Bovine type II collagen-induced arthritis; type: in vivo, DBA/1 mice; conditions: 1 mg/kg, from 14th day after attack, 3 weeks, FIG. 16, P<0.05
# [4] = test system: human prostate cancer PC-3 xenograft; assay: PC-3 xenograft on nude mice; conditions: 1-5 × 3.5 w; for TV (mm3) d0: baseline
# T1 sequence (P62942 whole entry, species assumed): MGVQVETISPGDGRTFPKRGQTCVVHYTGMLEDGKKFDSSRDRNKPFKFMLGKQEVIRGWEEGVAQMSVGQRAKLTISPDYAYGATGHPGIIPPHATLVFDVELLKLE
smiles,measurement,setting,value
CO[C@H]1C[C@@H]2CC[C@@H](C)[C@@](O)(O2)C(=O)C(=O)N2CCCC[C@H]2C(=O)O[C@H]([C@H](C)C[C@@H]2CC[C@@H](OC(=O)OCC(O)CO)[C@H](OC)C2)CC(=O)[C@H](C)/C=C(\C)[C@@H](O)[C@@H](OC)C(=O)[C@H](C)C[C@H](C)/C=C/C=C/C=C/1C (stereo partly drawn) [Y31],effect on the survival rate of the aGVHD mice,[1],markedly increase the survival rate
same,effect on the weight loss caused by aGVHD,[1],significantly alleviate the weight loss
same,binding with FKBP12,[2],concentration-dependently bind
same,Kd,[2]; FKBP12,0.1 nM
same,koff,[2]; FKBP12,0.11 × 10^−3 S^−1
same,kon,[2]; FKBP12,1.05 × 10^6 M^−1S^−1
same,R^U (Response Unit) compared with rapamycin,[2]; at the same concentration,higher
same,concentration to reach the saturation state for the binding with FKBP12,[2]; compared with rapamycin,lower than that for rapamycin
same,effect on the severe degree of CIA (arthritis score),[3],significantly reduce the severe degree of CIA
CO[C@H]1C[C@@H]2CC[C@@H](C)[C@@](O)(O2)C(=O)C(=O)N2CCCC[C@H]2C(=O)O[C@H]([C@H](C)C[C@@H]2CC[C@@H](O)[C@H](OC)C2)CC(=O)[C@H](C)/C=C(\C)[C@@H](O)[C@@H](OC)C(=O)[C@H](C)C[C@H](C)/C=C/C=C/C=C/1C [Rapamycin],Body Weight (g) end,"[4]; Table 3, 2.5 mg/kg p.o",21.8 g
same,Body Weight (g) start,"[4]; Table 3, 2.5 mg/kg p.o",19.8 g
same,RTV,"[4]; Table 3, 2.5 mg/kg p.o",3.03 ± 1.5
same,T/C (%),"[4]; Table 3, 2.5 mg/kg p.o",46.5%
same,TV (mm3) d21,"[4]; Table 3, 2.5 mg/kg p.o",277 ± 98 mm3
same,TV (mm3) d0,"[4]; Table 3, 2.5 mg/kg p.o",100 ± 39 mm3
same,Body Weight (g) end,"[4]; Table 3, 5 mg/kg p.o",22.2 g
same,Body Weight (g) start,"[4]; Table 3, 5 mg/kg p.o",22.2 g
same,RTV,"[4]; Table 3, 5 mg/kg p.o",2.0 ± 1.2
same,T/C (%),"[4]; Table 3, 5 mg/kg p.o",30.9%
same,TV (mm3) d21,"[4]; Table 3, 5 mg/kg p.o",170 ± 88 mm3
same,TV (mm3) d0,"[4]; Table 3, 5 mg/kg p.o",96 ± 38 mm3
